≈ marks a conversion by molar mass, not a printed value.
Tested on: Histophilus somni
Test: minimum inhibitory concentration (MIC)
Method: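 Broth microdilution MIC (Sensititre BOPO7F bovine plate, CLSI methods) of 19 antimicrobials against field isolates of P. multocida, M. haemolytica, H. somni (deep nasopharyngeal swabs) and E. coli, Enterococcus spp. (rectal swabs) from weaned dairy heifers. Incubation 16-24 h at 35 C. MIC is the lowest concentration preventing visible growth. Values with <= or > lie at the tested range limits. Trimethoprim-sulfamethoxazole is given as the trimethoprim component of a 1:19 mixture.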

CC[C@H]1OC(=O)C[C@@H](O)[C@H](C)[C@@H](O[C@@H]2O[C@H](C)[C@@H](O[C@H]3C[C@@](C)(O)[C@@H](O)[C@H](C)O3)[C@H](N(C)C)[C@H]2O)[C@@H](CC=O)C[C@@H](C)C(=O)/C=C/C(C)=C/[C@@H]1CO[C@@H]1O[C@H](C)[C@@H](O)[C@@H](OC)[C@H]1OC [Tylosin]
Conditions	minimum inhibitory concentration [mg/L]
isolate (source animal id): 3	8 (≈ 8.73 µM)
isolate (source animal id): 4	8 (≈ 8.73 µM)
isolate (source animal id): 7	8 (≈ 8.73 µM)
isolate (source animal id): 14	8 (≈ 8.73 µM)
isolate (source animal id): 15	8 (≈ 8.73 µM)
isolate (source animal id): 17	8 (≈ 8.73 µM)
isolate (source animal id): 18	8 (≈ 8.73 µM)
isolate (source animal id): 20	8 (≈ 8.73 µM)
isolate (source animal id): 23	2 (≈ 2.18 µM)
isolate (source animal id): 45	16 (≈ 17.5 µM)
isolate (source animal id): 53	16 (≈ 17.5 µM)
isolate (source animal id): 83	4 (≈ 4.37 µM)
isolate (source animal id): 88	8 (≈ 8.73 µM)
isolate (source animal id): 92	8 (≈ 8.73 µM)
isolate (source animal id): 93	8 (≈ 8.73 µM)
isolate (source animal id): 99	4 (≈ 4.37 µM)
isolate (source animal id): 100	8 (≈ 8.73 µM)
isolate (source animal id): 105	4 (≈ 4.37 µM)
isolate (source animal id): 107	8 (≈ 8.73 µM)
isolate (source animal id): 108	4 (≈ 4.37 µM)
isolate (source animal id): 109	8 (≈ 8.73 µM)
isolate (source animal id): 110	8 (≈ 8.73 µM)
isolate (source animal id): 117	4 (≈ 4.37 µM)
isolate (source animal id): 121	8 (≈ 8.73 µM)
isolate (source animal id): 123	8 (≈ 8.73 µM)
isolate (source animal id): 124	8 (≈ 8.73 µM)
isolate (source animal id): 127	8 (≈ 8.73 µM)
isolate (source animal id): 128	8 (≈ 8.73 µM)
isolate (source animal id): 130	2 (≈ 2.18 µM)
isolate (source animal id): 132	8 (≈ 8.73 µM)
isolate (source animal id): 135	8 (≈ 8.73 µM)
isolate (source animal id): 140	8 (≈ 8.73 µM)
isolate (source animal id): 141	4 (≈ 4.37 µM)
isolate (source animal id): 142	> 32
isolate (source animal id): 144	8 (≈ 8.73 µM)
isolate (source animal id): 146	4 (≈ 4.37 µM)
isolate (source animal id): 147	> 32
isolate (source animal id): 151	8 (≈ 8.73 µM)
isolate (source animal id): 153	16 (≈ 17.5 µM)
isolate (source animal id): 154	> 32
isolate (source animal id): 156	> 32
isolate (source animal id): 157	16 (≈ 17.5 µM)
isolate (source animal id): 176	32 (≈ 34.9 µM)
isolate (source animal id): 183	16 (≈ 17.5 µM)
isolate (source animal id): 186	32 (≈ 34.9 µM)
isolate (source animal id): 196	8 (≈ 8.73 µM)
isolate (source animal id): 198	8 (≈ 8.73 µM)
isolate (source animal id): 200	8 (≈ 8.73 µM)
isolate (source animal id): 206	8 (≈ 8.73 µM)
isolate (source animal id): 208	16 (≈ 17.5 µM)
isolate (source animal id): 210	8 (≈ 8.73 µM)
isolate (source animal id): 212	4 (≈ 4.37 µM)
isolate (source animal id): 215	8 (≈ 8.73 µM)
isolate (source animal id): 216	16 (≈ 17.5 µM)
isolate (source animal id): 218	8 (≈ 8.73 µM)
isolate (source animal id): 219	8 (≈ 8.73 µM)
isolate (source animal id): 224	8 (≈ 8.73 µM)
isolate (source animal id): 228	16 (≈ 17.5 µM)
isolate (source animal id): 230	32 (≈ 34.9 µM)
isolate (source animal id): 233	16 (≈ 17.5 µM)
isolate (source animal id): 238	2 (≈ 2.18 µM)
isolate (source animal id): 239	16 (≈ 17.5 µM)
isolate (source animal id): 241	16 (≈ 17.5 µM)
isolate (source animal id): 242	16 (≈ 17.5 µM)
isolate (source animal id): 243	16 (≈ 17.5 µM)
isolate (source animal id): 245	16 (≈ 17.5 µM)
isolate (source animal id): 246	8 (≈ 8.73 µM)
isolate (source animal id): 247	16 (≈ 17.5 µM)
isolate (source animal id): 248	4 (≈ 4.37 µM)
isolate (source animal id): 250	16 (≈ 17.5 µM)
isolate (source animal id): 251	32 (≈ 34.9 µM)
isolate (source animal id): 252	16 (≈ 17.5 µM)
isolate (source animal id): 254	16 (≈ 17.5 µM)
isolate (source animal id): 258	8 (≈ 8.73 µM)
isolate (source animal id): 259	8 (≈ 8.73 µM)
isolate (source animal id): 262	8 (≈ 8.73 µM)
isolate (source animal id): 264	4 (≈ 4.37 µM)
isolate (source animal id): 265	4 (≈ 4.37 µM)
isolate (source animal id): 266	8 (≈ 8.73 µM)
isolate (source animal id): 267	4 (≈ 4.37 µM)
isolate (source animal id): 269	4 (≈ 4.37 µM)
isolate (source animal id): 271	8 (≈ 8.73 µM)
isolate (source animal id): 272	4 (≈ 4.37 µM)
isolate (source animal id): 274	8 (≈ 8.73 µM)
isolate (source animal id): 276	8 (≈ 8.73 µM)
isolate (source animal id): 278	4 (≈ 4.37 µM)
isolate (source animal id): 280	4 (≈ 4.37 µM)
isolate (source animal id): 281	8 (≈ 8.73 µM)
isolate (source animal id): 283	4 (≈ 4.37 µM)
isolate (source animal id): 288	8 (≈ 8.73 µM)
isolate (source animal id): 291	8 (≈ 8.73 µM)
isolate (source animal id): 292	8 (≈ 8.73 µM)
isolate (source animal id): 296	4 (≈ 4.37 µM)
isolate (source animal id): 306	8 (≈ 8.73 µM)
isolate (source animal id): 336	8 (≈ 8.73 µM)
isolate (source animal id): 337	8 (≈ 8.73 µM)
isolate (source animal id): 341	8 (≈ 8.73 µM)

CC[C@H]1OC(=O)C[C@@H](O)[C@H](C)[C@@H](O[C@@H]2O[C@H](C)[C@@H](O)[C@H](N(C)C)[C@H]2O)[C@@H](CCN2C[C@H](C)C[C@H](C)C2)C[C@@H](C)C(=O)/C=C/C(C)=C/[C@@H]1CO[C@@H]1O[C@H](C)[C@@H](O)[C@@H](OC)[C@H]1OC [Tilmicosin]
Conditions	minimum inhibitory concentration [mg/L]
isolate (source animal id): 3	8 (≈ 9.2 µM)
isolate (source animal id): 4	≤ 2
isolate (source animal id): 7	≤ 2
isolate (source animal id): 14	≤ 2
isolate (source animal id): 15	8 (≈ 9.2 µM)
isolate (source animal id): 17	≤ 2
isolate (source animal id): 18	4 (≈ 4.6 µM)
isolate (source animal id): 20	≤ 2
isolate (source animal id): 23	4 (≈ 4.6 µM)
isolate (source animal id): 45	8 (≈ 9.2 µM)
isolate (source animal id): 53	8 (≈ 9.2 µM)
isolate (source animal id): 83	4 (≈ 4.6 µM)
isolate (source animal id): 88	4 (≈ 4.6 µM)
isolate (source animal id): 92	8 (≈ 9.2 µM)
isolate (source animal id): 93	4 (≈ 4.6 µM)
isolate (source animal id): 99	4 (≈ 4.6 µM)
isolate (source animal id): 100	8 (≈ 9.2 µM)
isolate (source animal id): 105	4 (≈ 4.6 µM)
isolate (source animal id): 107	4 (≈ 4.6 µM)
isolate (source animal id): 108	4 (≈ 4.6 µM)
isolate (source animal id): 109	8 (≈ 9.2 µM)
isolate (source animal id): 110	8 (≈ 9.2 µM)
isolate (source animal id): 117	4 (≈ 4.6 µM)
isolate (source animal id): 121	4 (≈ 4.6 µM)
isolate (source animal id): 123	8 (≈ 9.2 µM)
isolate (source animal id): 124	4 (≈ 4.6 µM)
isolate (source animal id): 127	4 (≈ 4.6 µM)
isolate (source animal id): 128	4 (≈ 4.6 µM)
isolate (source animal id): 130	8 (≈ 9.2 µM)
isolate (source animal id): 132	4 (≈ 4.6 µM)
isolate (source animal id): 135	4 (≈ 4.6 µM)
isolate (source animal id): 140	4 (≈ 4.6 µM)
isolate (source animal id): 141	4 (≈ 4.6 µM)
isolate (source animal id): 142	> 16
isolate (source animal id): 144	8 (≈ 9.2 µM)
isolate (source animal id): 146	8 (≈ 9.2 µM)
isolate (source animal id): 147	> 16
isolate (source animal id): 151	4 (≈ 4.6 µM)
isolate (source animal id): 153	16 (≈ 18.4 µM)
isolate (source animal id): 154	> 16
isolate (source animal id): 156	> 16
isolate (source animal id): 157	16 (≈ 18.4 µM)
isolate (source animal id): 176	16 (≈ 18.4 µM)
isolate (source animal id): 183	8 (≈ 9.2 µM)
isolate (source animal id): 186	8 (≈ 9.2 µM)
isolate (source animal id): 196	8 (≈ 9.2 µM)
isolate (source animal id): 198	8 (≈ 9.2 µM)
isolate (source animal id): 200	8 (≈ 9.2 µM)
isolate (source animal id): 206	8 (≈ 9.2 µM)
isolate (source animal id): 208	8 (≈ 9.2 µM)
isolate (source animal id): 210	4 (≈ 4.6 µM)
isolate (source animal id): 212	≤ 2
isolate (source animal id): 215	8 (≈ 9.2 µM)
isolate (source animal id): 216	16 (≈ 18.4 µM)
isolate (source animal id): 218	8 (≈ 9.2 µM)
isolate (source animal id): 219	8 (≈ 9.2 µM)
isolate (source animal id): 224	8 (≈ 9.2 µM)
isolate (source animal id): 228	8 (≈ 9.2 µM)
isolate (source animal id): 230	16 (≈ 18.4 µM)
isolate (source animal id): 233	4 (≈ 4.6 µM)
isolate (source animal id): 238	≤ 2
isolate (source animal id): 239	8 (≈ 9.2 µM)
isolate (source animal id): 241	8 (≈ 9.2 µM)
isolate (source animal id): 242	8 (≈ 9.2 µM)
isolate (source animal id): 243	8 (≈ 9.2 µM)
isolate (source animal id): 245	≤ 2
isolate (source animal id): 246	8 (≈ 9.2 µM)
isolate (source animal id): 247	16 (≈ 18.4 µM)
isolate (source animal id): 248	≤ 2
isolate (source animal id): 250	8 (≈ 9.2 µM)
isolate (source animal id): 251	8 (≈ 9.2 µM)
isolate (source animal id): 252	16 (≈ 18.4 µM)
isolate (source animal id): 254	8 (≈ 9.2 µM)
isolate (source animal id): 258	4 (≈ 4.6 µM)
isolate (source animal id): 259	4 (≈ 4.6 µM)
isolate (source animal id): 262	≤ 2
isolate (source animal id): 264	≤ 2
isolate (source animal id): 265	≤ 2
isolate (source animal id): 266	4 (≈ 4.6 µM)
isolate (source animal id): 267	4 (≈ 4.6 µM)
isolate (source animal id): 269	4 (≈ 4.6 µM)
isolate (source animal id): 271	4 (≈ 4.6 µM)
isolate (source animal id): 272	≤ 2
isolate (source animal id): 274	≤ 2
isolate (source animal id): 276	≤ 2
isolate (source animal id): 278	≤ 2
isolate (source animal id): 280	≤ 2
isolate (source animal id): 281	8 (≈ 9.2 µM)
isolate (source animal id): 283	4 (≈ 4.6 µM)
isolate (source animal id): 288	8 (≈ 9.2 µM)
isolate (source animal id): 291	4 (≈ 4.6 µM)
isolate (source animal id): 292	8 (≈ 9.2 µM)
isolate (source animal id): 296	4 (≈ 4.6 µM)
isolate (source animal id): 306	8 (≈ 9.2 µM)
isolate (source animal id): 336	8 (≈ 9.2 µM)
isolate (source animal id): 337	8 (≈ 9.2 µM)
isolate (source animal id): 341	8 (≈ 9.2 µM)

From the supplement of paper PMC8612539
